# Literature values as cited in the CATMoS acute toxicity set (Mansouri et al. 2021).
# Where “and” joins values, the source holds several entries; their conditions need not be identical. Equal entries are not always repeated. Where a SMILES comes first, the peptide text is derived from it. Bridges are numbered along the chain shown (N, C = ends). [ ]: non-standard residue; d: D form. The star is where a group is joined. Octanoyl(6-Me) = CCC(C)CCCCC(=O)*; Dab = NCC[CH](N)C(=O)O
# Test: rat acute oral toxicity
# Conditions: in vivo
# Excerpt: […]The data set underlying the modeling effort for this project was initially compiled by NICEATM and U.S. EPA’s CCTE. Briefly, LD50 data were collected from rat acute oral systemic toxicity tests, including limit tests, ranges/confidence intervals, and discrete LD50 values. The full data set included 21,200 LD50 entries for 15,688 substances. […] Data were reviewed to ensure that LD50 values with obvious errors in the extracted data such as unit conversion errors (e.g., comma and decimal separator misplacements) were either fixed or removed. After this review, 16,209 LD50 values remained. Many of the chemicals represented had multiple LD50 entries, requiring that a single representative value per Chemical Abstracts Service Registry Number (CASRN) identifier be defined to facilitate modeling efforts. Based on ATWG feedback and to define the representative LD50 as a protective value while accounting for the distribution across multiple LD50s, the median of the lowest quartile was computed using only discrete LD50 values (omitting limit test data and range and confidence interval data). A detailed summary of the data compilation is available online on the NICEATM webpage dedicated to the collaborative modeling project (NTP 2020).
# […][…] For categorical designations, limit test and range/confidence interval LD50 data were integrated wherever possible. As such, the number of chemicals with end point values/calls varies across the modeling end points (Table 3) based on whether chemicals had representative LD50 values and/or other data. If a chemical had both, the representative value was used to determine categorical calls rather than limit test data. Some data were useable only for certain end points and categories depending on the thresholds. For example, ranges that spanned multiple hazard categories were considered only for the binary (very toxic/nontoxic) end points and omitted from rendering a determination for hazard category assignment.
# […]The final data set comprising 11,992 chemicals was split into training and evaluation sets […], respectively. This process was performed semirandomly by ordering chemicals based on the five end points (categorical and continuous LD50 values) and partitioning every fourth record into the evaluation set accordingly. This approach was taken to ensure an equivalent distribution of the LD50 values and the different hazard categories between the training and the evaluation sets without supervised sampling of the chemicals based on structures (Figure 1A). The sources of the chemical structures were also kept equivalent between the two sets, with chemical structures obtained from DSSTox, being the highest quality, representing over 75% of each set (Figure 1B).
row,SMILES,LD50
1,Cc1nc2ccccc2n1Cc1ccc(Cl)cc1,2200 mg/kg
2,O=[n+]1c2ccccc2n([O-])c2ccc3ccccc3c21,4620 mg/kg
3,CCCCN1C(=O)c2cccc([N+](=O)[O-])c2C1=O,2030 mg/kg
4,Cc1cc(C)c(S(=O)(=O)O)c(C)c1Nc1ccc(Nc2c(C)cc(C)c(S(=O)(=O)O)c2C)c2c1C(=O)c1ccccc1C2=O,3350 mg/kg
5,NCC1CCC=CO1 (stereo not given),1000 mg/kg
6,COC(=N)N,3700 mg/kg
7,O=C1NCCN1/N=C/c1ccc([N+](=O)[O-])o1,1680 mg/kg
8,CCCCc1ccc(C(=O)O)nc1,480 mg/kg
9,CN(C)CCCC1c2ccccc2Nc2ccc(Cl)cc21 (stereo not given),379 mg/kg
10,CCCN(CCC)N=O,480 mg/kg
11,C[N+]1(CCC(O)(c2ccccc2)c2cccs2)CCOCC1 (stereo not given),2300 mg/kg
12,CN(C)c1ccncc1,250 mg/kg
13,CCCc1cc(C(N)=S)ccn1,1320 mg/kg
14,CC(=O)OCCC(C)C,16600 mg/kg
15,CC(C)c1ccccc1OP(=O)(Oc1ccccc1)Oc1ccccc1,10000 mg/kg
16,COc1c(F)c(F)c2[nH]c(C(F)(F)F)nc2c1F,2.89 mg/kg
17,CNC(=O)Oc1cccc2c1OC(C)(C)C2=O,295 mg/kg
18,CNNC,100 mg/kg and 257 mg/kg
19,CN(C)C(=O)c1sc(-c2cccnc2)nc1-c1ccccc1,1040 mg/kg
20,C[C@H](NC(=O)[C@H](C)NC(=O)[C@@H](N)CCP(C)(=O)O)C(=O)O,268 mg/kg
21,CCC(O)OC(C)(C)C (stereo not given),2520 mg/kg
22,Oc1cc2nc(C(F)(F)F)[nH]c2cc1Cl,55.5 mg/kg
23,C1=CC(c2ccc(C3CC=CCC3)cc2)CCC1 (stereo not given),17500 mg/kg
24,COc1cnc(C)s1,1250 mg/kg
25,CN1C2CCC(C)(C)C1CC(OC(=O)C(O)(c1cccs1)c1cccs1)C2 (stereo not given),1180 mg/kg

row,SMILES,LD50
1,CCCCOC(=O)[C@@H](C)Oc1ccc(Oc2ccc(C(F)(F)F)cn2)cc1,2710 mg/kg
2,CCN1CCCC(Nc2cc(C)nc(N=C(N)Nc3ccc(Cl)c(Cl)c3)n2)C1 (stereo not given),1040 mg/kg
3,CN1CCC(OC(c2ccccc2)c2ccccc2)CC1,698 mg/kg
4,CC(Cc1ccccc1)NC(C#N)c1ccccc1 (stereo not given),37.6 mg/kg
5,CCOP(=O)(OCC)SC,47.1 mg/kg
6,CCCC[P+](CCCC)(CCCC)CCCC,916 mg/kg and 420 mg/kg
7,COc1c(Cl)c(Cl)c2[nH]c(C(F)(F)F)nc2c1Cl,33 mg/kg
8,CCCCCN(CCCCC)N=O,1750 mg/kg
9,CCN(CC)CCOc1ccc(C2=C(c3ccccc3)Cc3cc(OC)ccc32)cc1,547 mg/kg
10,CCC(=O)CC(C)CC (stereo not given),3500 mg/kg
11,c1nc(NC2CC2)c2ncn(CC3CC3)c2n1,160 mg/kg
12,CCCCN(CCCC)CCC(O)c1cc2c(Cl)cc(Cl)cc2c2cc(C(F)(F)F)ccc12 (stereo not given),3400 mg/kg
13,CCN(CCCCOC(=O)c1ccc(OC)c(OC)c1)C1CCc2cc(OC)c(OC)cc2C1 (stereo not given),1540 mg/kg
14,C=C1C(=CC=C2CCCC3(C)C2CCC3C(C)CCCC(O)(C(F)(F)F)C(F)(F)F)CC(O)CC1O (stereo not given),0.0417 mg/kg
15,CCC1(c2ccccc2)CCC(=O)NC1=O (stereo not given),600 mg/kg
16,CC(=O)OC[C@H]1O[C@@H](n2ncc(=O)[nH]c2=O)[C@H](OC(C)=O)[C@@H]1OC(C)=O,12000 mg/kg
17,CC(CN1CCN(CCOCCO)CC1)CN1c2ccccc2Sc2ccccc21 (stereo not given),400 mg/kg
18,CCC(C)CO (stereo not given),4170 mg/kg
19,CCn1cc(C(=O)O)c(=O)c2cc3c(cc21)OCO3,525 mg/kg
20,CCCC(C(=O)c1ccc(C)cc1)N1CCCC1 (stereo not given),620 mg/kg
21,Cn1cc(OCC(O)CNC(C)(C)C)c2ccccc2c1=O (stereo not given),145 mg/kg
22,CN1CCCC(CN2c3ccccc3Sc3ccccc32)C1 (stereo not given),1000 mg/kg
23,COC(=NC#N)OC,1500 mg/kg
24,CN(C)c1ccc(N=Nc2ccc(S(=O)(=O)O)cc2)cc1,60 mg/kg
25,CCCCCCCCCCCCCCN(CC)C(C)(CO)CO,1500 mg/kg

row,SMILES,LD50
1,CC1OCCO1,2900 mg/kg
2,CCCCCCCCOS(=O)(=O)O,3200 mg/kg
3,Cc1cc(OCCO)cc(C)c1Cl,3800 mg/kg
4,CN=NNc1ccc(C)cc1,381 mg/kg
5,CCCCC(C#N)(Cn1ccnc1)c1ccccc1 (stereo not given),1590 mg/kg
6,O=S(=O)(c1ccccc1)c1ccccc1,300 mg/kg
7,CNc1c(Cl)cc(C(=O)NC2CC2)cc1Cl,262 mg/kg
8,OCc1ccc(OCCn2ccnc2)cc1,4860 mg/kg
9,Cc1nc([N+](=O)[O-])cn1-c1ccc([N+](=O)[O-])cc1,4810 mg/kg
10,N#CCCC[Si](Cl)(Cl)Cl,2830 mg/kg
11,CNCCC=C1c2ccccc2CCc2ccccc21,502 mg/kg and 405 mg/kg
12,CCCCC(C=CC(C)=O)CC (stereo not given),8120 mg/kg
13,FC(F)(F)c1nc2c(Br)cc(Br)cc2[nH]1,5.98 mg/kg
14,NS(=O)(=O)c1ccccc1,991 mg/kg
15,Cc1ccc(C(C)C=O)cc1 (stereo not given),3500 mg/kg
16,CCOP(=S)(OCC)OC(=CCl)c1ccc(Cl)cc1Cl,10 mg/kg
17,CCCC(=O)OCN(C)N=O,800 mg/kg
18,CNC(=O)Nc1c(OCCN2CCCC2)c(OC)c2occc2c1OC,1050 mg/kg
19,O=C1C(I)=CC(=C(c2cc(I)c(O)c(I)c2)c2ccccc2C(=O)O)C=C1I,2800 mg/kg
20,N#CN=c1ccccn1Cc1ccccc1Cl,500 mg/kg
21,COC(=O)/C=C(\C)OP(=O)(OC)OC,3 mg/kg
22,COCCNC(=O)CSP(=S)(OC)OC,420 mg/kg
23,CC(=O)CCc1ccc(OC(C)=O)cc1,3040 mg/kg
24,CCCCOC(=S)SC(=S)OCCCC,1400 mg/kg
25,CCCCNC,420 mg/kg

row,SMILES,LD50
1,O=C(O)Cc1ccc2c(c1)C(=O)c1ccccc1CO2,143 mg/kg
2,O=C(CO)c1coc(=O)c2c(O)cccc12,250 mg/kg
3,FC(F)(F)c1nc2c(Cl)cc(I)cc2[nH]1,1.44 mg/kg
4,COC(C)=O,6480 mg/kg
5,CS(=O)(=O)c1nnc(C(F)(F)F)s1,312 mg/kg
6,NC(=O)C1CCN(CCCN2c3ccccc3Sc3ccc(Cl)cc32)CC1,620 mg/kg
7,CCCCCOC(CBr)c1ccc(C(C)C)cc1 (stereo not given),250 mg/kg
8,CC(C)C(=O)OCC(C)(C)C(O)C(C)C (stereo not given),3200 mg/kg
9,CNc1nsc2ccccc12,576 mg/kg
10,CC(C)=CC(=O)O[C@H]1CC[C@]2(C=O)[C@H]3CC[C@]4(C)[C@@H](c5ccc(=O)oc5)CC[C@]4(O)[C@@H]3CC[C@]2(O)C1,1.74 mg/kg
11,CC(=O)OCC#N,32 mg/kg
12,NC(=S)Nc1ccc(-c2ccc(NC(N)=S)cc2)cc1,200 mg/kg
13,CCOP(=O)(OC=C(SCC)SCC)OCC,15 mg/kg
14,CCCCC(CC)COP(=O)(O)OCC(CC)CCCC (stereo not given),4940 mg/kg
15,CCOC1CC2CN3CCc4c([nH]c5cc(OC)ccc45)C3CC2C(C(=O)OC)C1OC (stereo not given),187 mg/kg
16,CC(C)=CCO,810 mg/kg
17,CC(C)=CCC(CCN(C)C)(C(N)=O)c1cccc2ccccc12 (stereo not given),143 mg/kg
18,CCOC(=O)NNc1nncc2ccccc12,318 mg/kg and 598 mg/kg
19,CN1CCC(N(Cc2cccs2)c2ccccc2)CC1,1060 mg/kg
20,O=Cc1ccc2c(c1)OCO2,2700 mg/kg
21,N#C[Se]Cc1ccccc1,98.5 mg/kg
22,COC(=O)c1ccccc1N=NN(C)C,13 mg/kg
23,C=C(C)C(=O)OCCC[Si](OC)(OC)OC,23500 mg/kg
24,O=C1C=CC(=O)N1CCCCCCN1C(=O)C=CC1=O,550 mg/kg
25,Cc1cc(O)ccc1[N+](=O)[O-],1200 mg/kg

row,SMILES,LD50
1,CCCCOCCOCCSC#N,90 mg/kg
2,c1ccc(N=Nc2ccccc2)cc1,1000 mg/kg
3,COc1cc(C(=O)N2CCCCCCC2)cc(OC)c1OC,130 mg/kg
4,COC(=O)c1ccco1,300 mg/kg
5,CCCCCCCCOC(C[n+]1ccccc1)c1ccc(C2CCCCC2)cc1 (stereo not given),250 mg/kg
6,CCCCN(CCCC)C(=O)CF,37 mg/kg
7,CNCCCC12CCC(c3ccccc31)c1ccccc12,760 mg/kg
8,COc1ccc(C(CCCc2ccccc2)N(C)C)cc1OC (stereo not given),500 mg/kg
9,CCNC(=O)OCCSCSP(=S)(OC)OC(C)C (stereo not given),8.5 mg/kg
10,CCC(C)CCCCC(=O)NC(CCN)C(=O)NC(C(=O)NC(CCN)C(=O)NC1CCNC(=O)C(C(C)O)NC(=O)C(CCN)NC(=O)C(CCN)NC(=O)C(C(C)O)NC(=O)C(CC(C)C)NC(=O)C(CCN)NC1=O)C(C)O (stereo not given) ({Octanoyl(6-Me)}-[Dab]T[Dab][Dab][Dab]LT[Dab][Dab]T; lactam 4-C; configuration not given here),910 mg/kg
11,Cc1nc(C)c(Cl)c(O)c1Cl,18000 mg/kg
12,CCCCOCCOCCCO,5160 mg/kg
13,CCOC(=O)C=Cc1ccc2c(c1)OCO2,948 mg/kg
14,COc1c2ccoc2cc2oc(CO[C@@H]3O[C@H](CO)[C@@H](O)[C@H](O)[C@H]3O)cc(=O)c12,1470 mg/kg
15,CCOc1ccc(C(CN(C)C)C(C)CC)cc1Cl (stereo not given),451 mg/kg
16,C=C(C)C(=O)OCCSCC,7400 mg/kg
17,CCCCc1ccc2c(S(=O)(=O)O)cc(CCCC)cc2c1,1250 mg/kg
18,CCc1cc(C(N)=S)ccn1,1320 mg/kg
19,CCOc1ccc(Cl)cc1C(CN1CCCCC1)C(C)CC (stereo not given),445 mg/kg
20,OC1(c2ccc(Cl)cc2)N=CN[n+]2ccc3ccccc3c21 (stereo not given),1300 mg/kg
21,O=S(=O)(F)C1CCC(S(=O)(=O)F)C1 (stereo not given),7.9 mg/kg
22,Nc1cc(S(=O)(=O)O)c2cccc(S(=O)(=O)O)c2c1,11400 mg/kg
23,CCNc1nc(Cl)nc(NCC)n1,971 mg/kg
24,CCN(CCO)c1ccc(N=O)c(C)c1,336 mg/kg
25,Cn1c(-c2ccccc2)cc(-c2ccccc2)[n+]1C,206 mg/kg and 470 mg/kg
